In patent US11414431B2, “Substituted pyrazolo[1,5-a]pyrimidines as TYK2 inhibitors” (Nimbus Lakshmi, Inc., priority 2018, dated 2022):

Tested on: IL-12 induced STAT4 phosphorlyation mediated by TYK2/JAK2
Experiment: IL-12 Induced pSTAT4 in Human PBMC
Format: cell-based
Details: 1.7 ng/mL IL-12 for 30 minutes
Procedure: Human PBMC were isolated from buffy coat and are stored frozen for assays as needed. […] 15 μL of compound or DMSO was added to the well at the desired concentrations and incubated at 1 hr at 37° C. 15 μL of stimulus (final concentration of 1.7 ng/mL IL-12) was added for 30 minutes prior to pSTAT4 and total STAT4 analysis using cell lysates prepared and analyzed by MSD reagents as per manufacturer protocol. The final DMSO concentration of compound in the assay was 0.1%.
The IL-12 induced pSTAT4 assay evaluates the inhibition of IL-12 induced STAT4 phosphorlyation mediated by TYK2/JAK2 (heterpdimeric complex).

SMILES	IC50
CNc1cc(Nc2cccn([C@@H]3CCCC[C@@H]3O)c2=O)nc2c(C(=O)NC3CC[C@@H]3F)cnn12 (some centres unmarked) [Compound I-209]	< 0.1 µM
CNc1cc(Nc2cccn([C@H]3[C@@H]4COC[C@@H]43)c2=O)nc2c(C(=O)NC3CC[C@@H]3F)cnn12 (some centres unmarked) [Compound I-206]	< 0.1 µM
CNc1cc(-c2cnc3n([C@H]4COC[C@@H]4OC)cccc2-3)nc2c(C(=O)N[C@H]3CC[C@H]3F)cnn12 [Compound I-839]	< 0.1 µM
CNc1cc(Nc2cccn([C@H]3CC[C@H]3O)c2=O)nc2c(C(=O)NC3CC[C@@H]3F)cnn12 (some centres unmarked) [Compound I-167]	< 0.1 µM
CNc1cc(Nc2cccn([C@H]3CCC[C@@](C)(O)C3)c2=O)nc2c(C(=O)N[C@@H]3C[C@@H]3F)cnn12 [Compound I-129]	< 0.1 µM
CNc1cc(Nc2cccn([C@H]3CCCC[C@H]3O)c2=O)nc2c(C(=O)NC3CC[C@@H]3F)cnn12 (some centres unmarked) [Compound I-212]	0.1 to 0.5 µM
CNc1cc(Nc2cccn([C@@H]3C[C@H]3F)c2=O)nc2c(C(=O)NC3CC[C@@H]3F)cnn12 (some centres unmarked) [Compound I-151]	< 0.1 µM
CNc1cc(Nc2cccn([C@@H]3CCCOC3)c2=O)nc2c(C(=O)NC3CC[C@@H]3F)cnn12 (some centres unmarked) [Compound I-194]	< 0.1 µM
CNc1cc(-c2cnc3n([C@@H]4COC[C@H]4OC)cccc2-3)nc2c(C(=O)N[C@@H]3CC[C@H]3OC)cnn12 [Compound I-884]	< 0.1 µM
CNc1cc(Nc2cccn([C@H]3[C@@H]4COC[C@@H]43)c2=O)nc2c(C(=O)N[C@H]3CC[C@H]3F)cnn12 [Compound I-204]	< 0.1 µM
CNc1cc(-c2cnc3n([C@@H]4COC[C@H]4OC)cccc2-3)nc2c(C(=O)NC3CC[C@H]3F)cnn12 (some centres unmarked) [Compound I-841]	< 0.1 µM
CNc1cc(Nc2cccn([C@H]3CCCOC3)c2=O)nc2c(C(=O)N[C@H]3CC[C@@H]3F)cnn12 [Compound I-198]	< 0.1 µM
CNc1cc(Nc2cccn([C@H]3CCCC[C@H]3O)c2=O)nc2c(C(=O)N[C@H]3CC[C@]3(C)OC)cnn12 [Compound I-424]	< 0.1 µM
CNc1cc(Nc2cccn([C@H]3CC[C@@H](OC)CC3)c2=O)nc2c(C(=O)N[C@@H]3CC[C@@]3(C)OC)cnn12 [Compound I-431]	< 0.1 µM
CNc1cc(Nc2cccn([C@H]3CCC[C@@H](C#N)C3)c2=O)nc2c(C(=O)N[C@@H]3CC[C@H]3OC)cnn12 [Compound I-258]	< 0.1 µM
CNc1cc(Nc2cccn(-c3ncccc3F)c2=O)nc2c(C(=O)NC3CC[C@H]3OC)cnn12 (some centres unmarked) [Compound I-265]	< 0.1 µM
CO[C@H]1CC[C@@H]1NC(=O)c1cnn2c(N)cc(-c3cnc4n([C@@H]5COC[C@H]5OC)cccc3-4)nc12 [Compound I-1010]	0.1 to 0.5 µM
CNc1cc(-c2cnc3n([C@@H]4COC[C@H]4OC)cccc2-3)nc2c(C(=O)NC3CC[C@@H]3OC)cnn12 (some centres unmarked) [Compound I-883]	< 0.1 µM
CNc1cc(Nc2cccn([C@@H]3C[C@H]3F)c2=O)nc2c(C(=O)N[C@@H]3C[C@H]3OC)cnn12 [Compound I-135]	< 0.1 µM
CNc1cc(Nc2cccn([C@H]3CC[C@H](OC)CC3)c2=O)nc2c(C(=O)NC3CC[C@@H]3F)cnn12 (some centres unmarked) [Compound I-224]	< 0.1 µM
CNc1cc(Nc2cccn(-c3ccccn3)c2=O)nc2c(C(=O)N[C@@H]3CC[C@H]3OC)cnn12 [Compound I-264]	< 0.1 µM

The next lines start with the values.

IC50	SMILES
< 0.1 µM	CNc1cc(-c2cn(C3COC3)c3ncccc23)nc2c(C(=O)N[C@@H]3CCC3(F)F)cnn12 [Compound I-675]
< 0.1 µM	CNc1cc(-c2cn(C3COC3)c3ncccc23)nc2c(C(=O)N[C@H]3CC[C@@H]3O)cnn12 [Compound I-558]
< 0.1 µM	CNc1cc(-c2cn([C@@H]3CN(C)C[C@H]3OC)c3ncccc23)nc2c(C(=O)NC3CC[C@@H]3OC)cnn12 (some centres unmarked) [Compound I-645]
0.5 to 1 µM	CNc1cc(-c2cn([C@H]3CCOC[C@H]3F)c3ncccc23)nc2c(C(=O)NC3CC[C@H]3O)cnn12 (some centres unmarked) [Compound I-591]
0.1 to 0.5 µM	CNc1cc(-c2cn(CC(=O)N3CCOCC3)c3ncccc23)nc2c(C(=O)N[C@H]3CC[C@@H]3OC)cnn12 [Compound I-963]
< 0.1 µM	CNc1cc(-c2cn([C@H]3CCOC[C@H]3OC)c3ncccc23)nc2c(C(=O)N[C@H]3CC[C@@H]3F)cnn12 [Compound I-796]
< 0.1 µM	CNc1cc(-c2cn(C3CCOCC3)c3ncccc23)nc2c(C(=O)N[C@H]3CCC3(F)F)cnn12 [Compound I-699]
< 0.1 µM	CNc1cc(Nc2cccn([C@H]3C[C@H](F)C3)c2=O)nc2c(C(=O)NC3CCC3(F)F)cnn12 (some centres unmarked) [Compound I-283]
< 0.1 µM	CNc1cc(-c2cn([C@@H]3CCOC[C@@H]3OC)c3ncccc23)nc2c(C(=O)NC3CC[C@@H]3OC)cnn12 (some centres unmarked) [Compound I-668]
< 0.1 µM	CNc1cc(-c2cn([C@H]3C[C@@H](O)C3)c3ncccc23)nc2c(C(=O)NC3CCC3(F)F)cnn12 (some centres unmarked) [Compound I-677]
< 0.1 µM	CNc1cc(-c2cn([C@@H]3COC[C@H]3OC)c3ccccc23)nc2c(C(=O)N[C@@H]3CC[C@H]3OC)cnn12 [Compound I-746]
< 0.1 µM	CNc1cc(-c2cn(C3COC3)c3ncccc23)nc2c(C(=O)N[C@H]3CC[C@H]3O)cnn12 [Compound I-555]
< 0.1 µM	CNc1cc(-c2cn(C3CCCC3)c3ncccc23)nc2c(C(=O)NC3CCC3(F)F)cnn12 (centres unmarked) [Compound I-680]
< 0.1 µM	CNc1cc(-c2cn([C@H]3COC[C@@H]3OC)c3ncccc23)nc2c(C(=O)NC3CC[C@@H]3OC)cnn12 (some centres unmarked) [Compound I-633]
< 0.1 µM	CNc1cc(-c2cn([C@H]3COC[C@H]3F)c3ncccc23)nc2c(C(=O)N[C@H]3CC[C@H]3O)cnn12 [Compound I-574]
< 0.1 µM	CNc1cc(-c2cn([C@H]3COC[C@@H]3OC)c3ncccc23)nc2c(C(=O)N[C@H]3CC[C@@H]3F)cnn12 [Compound I-523]
< 0.1 µM	CNc1cc(-c2cn([C@@H]3COC[C@H]3OC)c3ncccc23)nc2c(C(=O)N[C@H]3CC[C@@H]3OC)cnn12 [Compound I-637]
< 0.1 µM	CNc1cc(-c2cn(C3CCCC3)c3ncccc23)nc2c(C(=O)N[C@@H]3CCC3(F)F)cnn12 [Compound I-681]
0.1 to 0.5 µM	CNc1cc(-c2cn([C@@H]3COC[C@@H]3F)c3ncccc23)nc2c(C(=O)N[C@@H]3COC[C@@H]3O)cnn12 [Compound I-730]
< 0.1 µM	CNc1cc(-c2cn([C@H]3COC[C@H]3F)c3ncccc23)nc2c(C(=O)N[C@H]3CC[C@@H]3OC)cnn12 [Compound I-625]
0.5 to 1 µM	CNc1cc(-c2cn([C@@H]3COC[C@H]3OC)c3ncccc23)nc2c(C(=O)NC3CC[C@H]3O)cnn12 (some centres unmarked) [Compound I-587]
< 0.1 µM	CNc1cc(-c2cn([C@H]3[C@@H]4COC[C@@H]43)c3ncccc23)nc2c(C(=O)N[C@H]3CC[C@@H]3OC)cnn12 [Compound I-793, 5-(1-((1R,5S,6r)-3-oxabicyclo[3.1.0]hexan-6-yl)-1H-pyrrolo[2,3-b]pyridin-3-yl)-N-((1S,2S)-2-methoxycyclobutyl)-7-(methylamino)pyrazolo[1,5-a]pyrimidine-3-carboxamide]
< 0.1 µM	CNc1cc(-c2cn([C@H]3CCOC[C@@H]3F)c3ncccc23)nc2c(C(=O)NC3CC[C@@H]3OC)cnn12 (some centres unmarked) [Compound I-651]
< 0.1 µM	CNc1cc(Nc2cccn(C3CCOCC3)c2=O)nc2c(C(=O)NC3CCC3(F)F)cnn12 (centres unmarked) [Compound I-309]
< 0.1 µM	CNc1cc(-c2cn([C@H]3CCN(C)C3)c3ncccc23)nc2c(C(=O)NC3CC[C@@H]3OC)cnn12 (some centres unmarked) [Compound I-618]
< 0.1 µM	CNc1cc(-c2cn([C@H]3COC[C@@H]3O)c3ncccc23)nc2c(C(=O)N[C@H]3CC[C@@H]3OC)cnn12 [Compound I-631]
< 0.1 µM	CNc1cc(Nc2cccn([C@H]3C[C@@H](OC)C3)c2=O)nc2c(C(=O)NC3CCC3(F)F)cnn12 (some centres unmarked) [Compound I-295]

Same assay, conditions: 0.5 h, 1.7 ng/mL IL-12 for 30 minutes

IC50	SMILES
< 0.1 µM	CO[C@@H]1CCC1NC(=O)c1cnn2c3c(c(Nc4cccn(C(C)C)c4=O)nc12)OCCN3 (stereo in doubt) [Compound I-759, 5-((1-Isopropyl-2-oxo-1,2-dihydropyridin-3-yl)amino)-N-(2-methoxycyclobutyl)-2,3-dihydro-1H-pyrazolo[5′,1′:2,3]pyrimido[5,4-b][1,4]oxazine-7-carboxamide]
< 0.1 µM	CNc1cc(Nc2cccn([C@H]3CCC[C@@H](C#N)C3)c2=O)nc2c(C(=O)NC3CC[C@@H]3OC)cnn12 (stereo partly drawn) [Compound I-114, 5-((1-((1S,3R)-3-Cyanocyclohexyl)-2-oxo-1,2-dihydropyridin-3-yl)amino)-N-((trans-1,2)-2-methoxycyclobutyl)-7-(methylamino)pyrazolo[1,5-a]pyrimidine-3-carboxamide]
< 0.1 µM	CNc1cc(Nc2cccn([C@@H]3CC[C@H]3OC)c2=O)nc2c(C(=O)N[C@H]3CC[C@@H]3O)cnn12 [Compound I-20, N-((1S,2S)-2-Hydroxycyclobutyl)-5-((1-((1R,2R)-2-methoxycyclobutyl)-2-oxo-1,2-dihydropyridin-3-yl)amino)-7-(methylamino)pyrazolo[1,5-a]pyrimidine-3-carboxamide]
< 0.1 µM	CNc1cc(Nc2cccn([C@H]3C[C@@H]3F)c2=O)nc2c(C(=O)N[C@H]3CC[C@H]3O)cnn12 [Compound I-12, 5-((1-((1S,2S)-2-Fluorocyclopropyl)-2-oxo-1,2-dihydropyridin-3-yl)amino)-N-((1S,2R)-2-hydroxycyclobutyl)-7-(methylamino)pyrazolo[1,5-a]pyrimidine-3-carboxamide]
< 0.1 µM	CNc1cc(-c2cnc3n([C@H]4CCOC4)cccc2-3)nc2c(C(=O)NC3CC[C@@H]3OC)cnn12 (stereo partly drawn) [Compound I-994, N-(2-methoxycyclobutyl)-7-(methylamino)-5-(7-((S)-tetrahydrofuran-3-yl)-7H-pyrrolo[2,3-b]pyridin-3-yl)pyrazolo[1,5-a]pyrimidine-3-carboxamide]
